Assay results published in patent publication US11473052B2, “Bacillus subtilis subspecies” (Novozymes A/S, priority 2015, dated 2022).
Where two headings read alike, the source gives them in different places.

Tests used:
B. subtilis DSM 29870 = assay: MIC of antibiotics by broth micro dilution (CLSI M07-A9); conditions: Bacillus subtilis
S. aureus ATCC 29213 = assay: MIC of antibiotics by broth micro dilution (CLSI M07-A9), control strain; conditions: Staphylococcus aureus

## CN[C@H](CC(C)C)C(=O)N[C@H]1C(=O)N[C@@H](CC(N)=O)C(=O)N[C@H]2C(=O)N[C@H]3C(=O)N[C@H](C(=O)N[C@H](C(=O)O)c4cc(O)cc(O)c4-c4cc3ccc4O)[C@H](O)c3ccc(c(Cl)c3)Oc3cc2cc(c3O[C@@H]2O[C@H](CO)[C@@H](O)[C@H](O)[C@H]2O[C@H]2C[C@](C)(N)[C@H](O)[C@H](C)O2)Oc2ccc(cc2Cl)[C@H]1O [Vancomycin]
B. subtilis DSM 29870; DSM29870, read-out: MIC 1
  MIC: 0.25 µg/mL
B. subtilis DSM 29870; DSM29870, read-out: MIC 2
  MIC: 0.25 µg/mL
B. subtilis DSM 29870; DSM29870, read-out: MIC 3
  MIC: 0.25 µg/mL
S. aureus ATCC 29213; ATCC29213, read-out: MIC 1
  MIC: 0.5 µg/mL
S. aureus ATCC 29213; ATCC29213, read-out: MIC 2
  MIC: 1 µg/mL
S. aureus ATCC 29213; ATCC29213, read-out: MIC 3
  MIC: 1 µg/mL
